# Results taken from US20070128217A1 (priority 2003, published 2007).
# Tests used:
# [1] = system: rabbit serum obtained by immunizing a rabbit with the SARS-CoV strain Frankfurt 1; format: binding; design: Binding of a rabbit serum to linear peptides / Binding of a rabbit serum to looped peptides / Rabbit serum linear peptides / Rabbit serum looped peptides / Binding of a rabbit serum to linear peptides of protein N of SARS-CoV Urbani (Rabbit serum linear peptides) / Binding of a rabbit serum to looped/cyclic peptides of protein N of SARS-CoV Urbani (Rabbit serum looped peptides): unit not given here
# [2] = system: control sera (pooled serum of ten healthy LUMC hospital workers; commercial negative donor pooled serum from the Dutch bloodbank); format: binding, human; design: Binding of Control serum LUMC to linear peptides / Binding of Control serum Blood-bank to linear peptides / Binding of Control serum LUMC to looped peptides / Binding of Control Serum Blood-Bank to Looped peptides / Binding of Control serum LUMC to linear peptides of the protein M of SARS-CoV Urbani / Binding of Control serum Blood-bank to linear peptides of the protein M of SARS-CoV Urbani / Binding of Control serum LUMC to looped peptides of the protein M of SARS-CoV Urbani / Binding of Control Serum Blood-Bank to Looped peptides of the protein M of SARS-CoV Urbani: unit not given here
# [3] = system: antibodies in sera from SARS patients (sera 1a, 1b, 2, 6, 37, 62, London, SARS-yellow, SARS-green); format: binding, human; design: Binding of serum 6 to linear peptides of protein X1 of SARS-CoV Urbani / Binding of serum 37 to linear peptides of protein X1 of SARS-CoV Urbani / Binding of serum 6 to looped/cyclic peptide (PEPSCAN-ELISA) / Binding of serum 37 to looped/cyclic peptide (PEPSCAN-ELISA) / Binding of serum 37 to looped/cyclic peptides of protein X1 of SARS-CoV Urbani / Binding of serum 6 to linear peptides of protein X2 / Binding of serum 37 to linear peptides of protein X2 / Binding of serum 37 to looped/cyclic peptides of protein X2 of SARS-CoV Urbani / Binding of serum 6 to linear peptides of protein M of SARS-CoV Urbani / Binding of serum 37 to linear peptides of protein M of SARS-CoV Urbani / Binding of serum 6 to looped/cyclic peptides of protein M of SARS-CoV Urbani / Binding of serum 37 to looped/cyclic peptides of protein M of SARS-CoV Urbani / Binding of serum 6 to linear peptides of protein X3 of SARS-CoV Urbani / Binding of serum 37 to linear peptides of protein X3 of SARS-CoV Urbani / Binding of serum 37 to looped/cyclic peptides of protein X3 of SARS-CoV Urbani / Binding of serum 6 to linear peptides of protein X4 of SARS-CoV Urbani / Binding of serum 37 to linear peptides of protein X4 of SARS-CoV Urbani / Binding of serum 37 to looped/cyclic peptides of protein X4 of SARS-CoV Urbani / Binding of serum 6 to linear peptides of protein X5 of SARS-CoV Urbani / Binding of serum 37 to linear peptides of protein X5 of SARS-CoV Urbani / Binding of serum 37 to looped/cyclic peptides of protein X5 of SARS-CoV Urbani / Binding of serum 6 to linear peptides of protein N of SARS-CoV Urbani / Binding of serum 37 to linear peptides of protein N of SARS-CoV Urbani / Binding of serum 6 to linear peptide (PEPSCAN-ELISA) / Binding of serum 1a to looped/cyclic peptides of protein N of SARS-CoV Urbani / Binding of serum 1b to looped/cyclic peptides of protein N of SARS-CoV Urbani / Binding of serum 2 to looped/cyclic peptides of protein N of SARS-CoV Urbani / Binding of serum 6 to looped/cyclic peptides of protein N of SARS-CoV Urbani / Binding of serum 37 to looped/cyclic peptides of protein N of SARS-CoV Urbani / Binding of serum 62 to looped/cyclic peptides of protein N of SARS-CoV Urbani / Binding of serum London to looped/cyclic peptides of protein N of SARS-CoV Urbani / Binding of serum SARS-green to looped/cyclic peptides of protein N of SARS-CoV Urbani: unit not given here
Sequence,Rabbit serum linear peptides [1],Rabbit serum looped peptides [1],Binding of Control Serum Blood-Bank to Looped peptides of the protein M of SARS-CoV Urbani [2],Binding of Control serum Blood-bank to linear peptides of the protein M of SARS-CoV Urbani [2],Binding of Control serum LUMC to linear peptides of the protein M of SARS-CoV Urbani [2],Binding of Control serum LUMC to looped peptides of the protein M of SARS-CoV Urbani [2],Binding of serum 1a to linear peptides of protein M of SARS-CoV Urbani [3],Binding of serum 1a to looped/cyclic peptides of protein M of SARS-CoV Urbani [3],Binding of serum 1b to linear peptides of protein M of SARS-CoV Urbani [3],Binding of serum 1b to looped/cyclic peptides of protein M of SARS-CoV Urbani [3],Binding of serum 2 to linear peptides of protein M of SARS-CoV Urbani [3],Binding of serum 2 to looped/cyclic peptides of protein M of SARS-CoV Urbani [3],Binding of serum 6 to linear peptides of protein M of SARS-CoV Urbani [3],Binding of serum 6 to looped/cyclic peptides of protein M of SARS-CoV Urbani [3],Binding of serum 37 to linear peptides of protein M of SARS-CoV Urbani [3],Binding of serum 37 to looped/cyclic peptides of protein M of SARS-CoV Urbani [3],Binding of serum 62 to linear peptides of protein M of SARS-CoV Urbani [3],Binding of serum 62 to looped/cyclic peptides of protein M of SARS-CoV Urbani [3],Binding of serum London to linear peptides of protein M of SARS-CoV Urbani [3],Binding of serum London to looped/cyclic peptides of protein M of SARS-CoV Urbani [3],other results
ESELVIGAVIIRGHL,0.4,0.1,0.7,0.6,0.4,0.5,0.8,0.6,0.6,0.5,0.8,0.6,0.3,0.5,0.9,0.5,0.8,0.5,0.3,0.2,Binding of serum SARS-green to linear peptides of protein M of SARS-CoV Urbani [3]: 0.3; Binding of serum SARS-green to looped/cyclic peptides of protein M of SARS-CoV Urbani [3]: 0.2; Binding of serum SARS-yellow to linear peptides of protein M of SARS-CoV Urbani [3]: 0.1; Binding of serum SARS-yellow to looped/cyclic peptides of protein M of SARS-CoV Urbani [3]: 0.4
GTDSGFAAYNRYRIG,0.2,0.4,0.6,0.7,0.5,0.7,0.6,0.8,0.4,0.5,0.4,0.6,0.7,0.8,0.6,0.7,0.5,0.6,0.3,0.3,Binding of serum SARS-green to linear peptides of protein M of SARS-CoV Urbani [3]: 0.4; Binding of serum SARS-green to looped/cyclic peptides of protein M of SARS-CoV Urbani [3]: 0.4; Binding of serum SARS-yellow to linear peptides of protein M of SARS-CoV Urbani [3]: 0.2; Binding of serum SARS-yellow to looped/cyclic peptides of protein M of SARS-CoV Urbani [3]: 0.9
